How the values were obtained:
[1] = test system: Human immunodeficiency virus 1; experiment: Antiviral activity against HIV-1 3B infected in human MT4 cells assessed as reduction in virus-induced cytopathic effect incubated for 5 days by MTT assay; format: functional, organism-based; conditions: Human immunodeficiency virus 1, 3B, MT4, 120 h
[2] = test system: Human immunodeficiency virus 1; experiment: Antiviral activity against drug resistant HIV-1 RES056 harboring reverse transcriptase K103N/Y181C double mutant infected in human MT4 cells assessed as reduction in virus-induced cytopathic effect incubated for 5 days by MTT assay; format: functional, organism-based; conditions: Human immunodeficiency virus 1, RES056, MT4, 120 h
[3] = Cytotoxicity against human MT4 cells assessed as reduction in cell viability incubated for 5 days by MTT assay; format: cell-based
[4] = Selectivity index, ratio of CC50 for human MT4 cells to EC50 for antiviral activity against HIV RES056; format: toxicity; conditions: read-out: Ratio CC50/EC50
[5] = Selectivity index, ratio of CC50 for human MT4 cells to EC50 for antiviral activity against HIV IIIB; format: toxicity; conditions: read-out: Ratio CC50/EC50
[6] = test system: Human immunodeficiency virus 1; experiment: Antiviral activity against drug resistant HIV-1 harboring reverse transcriptase F227L/V106A double mutant infected in human MT4 cells assessed as reduction in virus-induced cytopathic effect incubated for 5 days by MTT assay; format: functional, organism-based; conditions: Human immunodeficiency virus 1, MT4, 120 h
[7] = test system: Human immunodeficiency virus 1; experiment: Antiviral activity against drug resistant HIV-1 harboring reverse transcriptase L100I mutant infected in human MT4 cells assessed as reduction in virus-induced cytopathic effect incubated for 5 days by MTT assay; format: functional, organism-based; conditions: Human immunodeficiency virus 1, MT4, 120 h
[8] = test system: Human immunodeficiency virus 1; experiment: Antiviral activity against drug resistant HIV-1 harboring reverse transcriptase Y188L mutant infected in human MT4 cells assessed as reduction in virus-induced cytopathic effect incubated for 5 days by MTT assay; format: functional, organism-based; conditions: Human immunodeficiency virus 1, MT4, 120 h
[9] = test system: Human immunodeficiency virus 1; experiment: Antiviral activity against drug resistant HIV-1 harboring reverse transcriptase E138K mutant infected in human MT4 cells assessed as reduction in virus-induced cytopathic effect incubated for 5 days by MTT assay; format: functional, organism-based; conditions: Human immunodeficiency virus 1, MT4, 120 h
[10] = test system: Human immunodeficiency virus 1; experiment: Antiviral activity against drug resistant HIV-1 harboring reverse transcriptase K103N mutant infected in human MT4 cells assessed as reduction in virus-induced cytopathic effect incubated for 5 days by MTT assay; format: functional, organism-based; conditions: Human immunodeficiency virus 1, MT4, 120 h
[11] = test system: Human immunodeficiency virus 1; experiment: Antiviral activity against drug resistant HIV-1 harboring reverse transcriptase Y181C mutant infected in human MT4 cells assessed as reduction in virus-induced cytopathic effect incubated for 5 days by MTT assay; format: functional, organism-based; conditions: Human immunodeficiency virus 1, MT4, 120 h

Compound	EC50 [1] [µM]	EC50 [2] [µM]	CC50 at 120 h [3] [µM]	selectivity ratio [4]	selectivity ratio [5]	EC50 [6] [µM]	EC50 [7] [µM]	EC50 [8] [µM]	EC50 [9] [µM]	EC50 [10] [µM]	EC50 [11] [µM]
Cc1cc(C)cc(S(=O)(=O)c2c(C(=O)NC3CN(CC(N)=O)C3)[nH]c3ccc(Cl)cc23)c1	0.013	> 25.5	25.5	< 1	1940	–	–	–	–	–	–
Cc1cc(C)cc(S(=O)(=O)c2c(C(=O)NC3CN(Cc4ccccc4F)C3)[nH]c3ccc(Cl)cc23)c1	0.03	65.1	> 238	> 4	> 7810	–	–	–	–	–	–
CCS(=O)(=O)NC(=O)c1[nH]c2ccc(Cl)cc2c1S(=O)(=O)c1cc(C)cc(C)c1	2.95	> 284	> 284	–	> 96	11.3	4.4	> 284	0.59	10.2	12.9
Cc1cc(C)cc(S(=O)(=O)c2c(C(=O)NCCP(=O)(O)O)[nH]c3ccc(Cl)cc23)c1	0.21	> 237	> 237	–	> 1100	–	–	–	–	–	–
Cc1cc(C)cc(S(=O)(=O)c2c(C(=O)NC3CN(S(C)(=O)=O)C3)[nH]c3ccc(Cl)cc23)c1	0.017	> 252	> 252	–	> 15200	–	–	–	–	–	–
Cc1cc(C)cc(S(=O)(=O)c2c(C(=O)NC3CNC3)[nH]c3ccc(Cl)cc23)c1	0.074	≥ 37.3	37.3	< 1	495	–	–	–	–	–	–
Cc1cc(C)cc(S(=O)(=O)c2c(C(=O)N[C@@H]3CCN(Cc4ccccc4F)C3)[nH]c3ccc(Cl)cc23)c1	0.12	> 232	> 232	–	> 1860	–	–	–	–	–	–
Cc1cc(C)cc(S(=O)(=O)c2c(C(=O)NC3CN(Cc4cccnc4)C3)[nH]c3ccc(Cl)cc23)c1	0.015	> 36	36	< 1	2480	–	–	–	–	–	–
Cc1cc(C)cc(S(=O)(=O)c2c(C(=O)N[C@H]3CCN(Cc4n[nH]c(=O)n4C)C3)[nH]c3ccc(Cl)cc23)c1	0.0072	≥ 21.4	21.4	< 1	2980	–	–	–	–	–	–
Cc1cc(C)cc(S(=O)(=O)c2c(C(=O)NS(=O)(=O)C3CC3)[nH]c3ccc(Cl)cc23)c1	2.6	> 147	147	< 1	57	11.8	8.17	> 147	0.33	12.1	18.6
Cc1cc(C)cc(S(=O)(=O)c2c(C(=O)N[C@H]3CCN(Cc4ccccc4C#N)C3)[nH]c3ccc(Cl)cc23)c1	0.17	174	> 229	> 1	> 1350	–	–	–	–	–	–
Cc1cc(C)cc(S(=O)(=O)c2c(C(=O)NC3CN(Cc4ccccc4C#N)C3)[nH]c3ccc(Cl)cc23)c1	0.013	66.8	> 235	> 4	> 18700	–	–	–	–	–	–
Cc1cc(C)cc(S(=O)(=O)c2c(C(=O)N[C@@H]3CCN(Cc4cccnc4)C3)[nH]c3ccc(Cl)cc23)c1	0.057	≥ 36.5	36.5	< 1	627	–	–	–	–	–	–
Cc1cc(C)cc(S(=O)(=O)c2c(C(=O)N[C@H]3CCN(Cc4cccnc4)C3)[nH]c3ccc(Cl)cc23)c1	0.011	≥ 22.8	22.8	< 1	2010	–	–	–	–	–	–
CCCS(=O)(=O)NC(=O)c1[nH]c2ccc(Cl)cc2c1S(=O)(=O)c1cc(C)cc(C)c1	2.4	> 146	146	< 1	61	20.6	10.9	> 146	0.43	17.3	29.6
Cc1cc(C)cc(S(=O)(=O)c2c(C(=O)N[C@@H]3CCNC3)[nH]c3ccc(Cl)cc23)c1	0.049	≥ 9.72	37.3	< 1	–	–	–	–	–	–	–
Cc1cc(C)cc(S(=O)(=O)c2c(C(=O)NS(C)(=O)=O)[nH]c3ccc(Cl)cc23)c1	0.0096	≥ 9.44	40.1	≤ 4	4180	–	–	–	–	–	–
Cc1cc(C)cc(S(=O)(=O)c2c(C(=O)N[C@H]3CCN(Cc4ccccc4F)C3)[nH]c3ccc(Cl)cc23)c1	0.083	≥ 215	215	< 1	2580	–	–	–	–	–	–
Cc1cc(C)cc(S(=O)(=O)c2c(C(=O)NC3CN(Cc4n[nH]c(=O)n4C)C3)[nH]c3ccc(Cl)cc23)c1	0.11	> 25.2	25.2	> 224	224	1.17	0.104	2.16	0.28	0.51	1.69
Cc1cc(C)cc(S(=O)(=O)c2c(C(=O)NCCn3ccc(=O)[nH]c3=O)[nH]c3ccc(Cl)cc23)c1	4.42	> 265	> 265	–	> 60	–	–	–	–	–	–
Cc1cc(C)cc(S(=O)(=O)c2c(C(=O)N[C@@H]3CCN(Cc4ccccc4C#N)C3)[nH]c3ccc(Cl)cc23)c1	0.053	> 186	≥ 186	–	2580	–	–	–	–	–	–
Cc1cc(C)cc(S(=O)(=O)c2c(C(=O)N[C@H]3CCNC3)[nH]c3ccc(Cl)cc23)c1	0.021	≥ 10	10	< 1	473	–	–	–	–	–	–
Cc1cc(C)cc(S(=O)(=O)c2c(C(=O)N[C@@H]3CCN(Cc4n[nH]c(=O)n4C)C3)[nH]c3ccc(Cl)cc23)c1	0.035	≥ 22.4	22.4	< 1	634	–	–	–	–	–	–
O=C1Nc2ccc(Cl)cc2[C@@](C#CC2CC2)(C(F)(F)F)O1 [EFAVIRENZ]	0.0086	0.26	> 6.35	–	–	0.25	–	0.27	–	–	0.0083
Nc1ccn([C@@H]2CS[C@H](CO)O2)c(=O)n1 [LAMIVUDINE]	3.88	5.54	> 87.2	> 16	–	1.92	3.14	4.45	3.58	3.7	4.54
Cc1ccnc2c1NC(=O)c1cccnc1N2C1CC1 [NEVIRAPINE]	0.38	> 15	> 15	–	–	> 15	1.24	> 15	0.18	7.18	> 15

From ChEMBL document CHEMBL4359892, “Discovery of novel indolylarylsulfones as potent HIV-1 NNRTIs via structure-guided scaffold morphing” (Eur J Med Chem, 2019)
